The results in this text go back to patent US12344610B2, “APOL1 inhibitors and methods of use” (Maze Therapeutics, Inc., priority 2022, dated 2025).

The AC50 is the concentration at which the activity in the assay is half-maximal. The term EC50 denotes the concentration at which the effect is half-maximal.

Each structure is given as a SMILES string.

In one experiment the target is T1, APOL1 G2 (Homo sapiens, UniProt O14791, DEL388-389).
T1 construct: expressed in transfected cells; host or cells: HEK293 T-REx clonal line stably expressing GCaMP6f (HEK T-REx/GCaMP6f/APOL1 G2 K6.3), doxycycline induced
T1 sequence (O14791 with tags, fused parts or gaps DEL388-389): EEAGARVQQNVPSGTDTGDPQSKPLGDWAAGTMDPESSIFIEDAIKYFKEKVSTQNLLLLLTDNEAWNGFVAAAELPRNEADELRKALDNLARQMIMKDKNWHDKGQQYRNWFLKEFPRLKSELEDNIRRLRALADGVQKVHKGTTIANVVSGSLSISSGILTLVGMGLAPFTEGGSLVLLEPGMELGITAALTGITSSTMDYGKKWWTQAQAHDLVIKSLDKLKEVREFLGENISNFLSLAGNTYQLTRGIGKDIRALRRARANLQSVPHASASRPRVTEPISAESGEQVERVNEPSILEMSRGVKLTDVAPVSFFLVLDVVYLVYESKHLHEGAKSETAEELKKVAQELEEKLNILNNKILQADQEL
Briefly: APOL1-mediated calcium transport (calcium influx) assay, HEK T-REx/GCaMP6f/APOL1 G2 K6.3 cells, FLIPR TETRA. It counts as cell-based. As to conditions: prevention of calcium influx; geometric mean of at least 2 assay runs; † = average of a technical replicate from a single assay run. Put shortly: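 A HEK293 T-REx clone stably expressing GCaMP6f had APOL1 G2 induced with doxycycline (20 ng/mL solution added) for 6 h. Cells were then washed into Ca2+-free Tyrode's buffer (pH 7.4) and preincubated with compounds (duplicate 8-point) for 10 min at room temperature. Ca2+ injection to 5 mM final produced FLIPR GCaMP fluorescence, giving AC50 for influx inhibition (geometric mean, ≥2 runs).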

Experiment [1] deals with HEK293 cells overexpressing APOL1 G2. Briefly: APOL1 G2 HEK293 cell rescue assay (reversal of cell death caused by overexpression of APOL1). It counts as cell-based. The settings on record: geometric mean of at least 2 assay runs, † = single assay run. Put shortly: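 EC50 is the half-maximal effective concentration for reversing cell death driven by APOL1 G2 overexpression in HEK293 cells. Reported as geometric mean of at least 2 runs on separate days, each run averaging duplicate wells per plate; some values from a single run.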

The mark [2] stands for this setting: Homo sapiens, HEK293, HEK293 overexpressing APOL1 G2.

Consider `CC(O)c1ncc(OCCN2CCC3(CC2)C(=O)Nc2ccc(C(F)F)cc23)cc1C(F)(F)F` (single isomer, unassigned) [Compound 287, 5-(difluoromethyl)-1′-[2-({6-[(1S) or (1R)-1-hydroxyethyl]-5-(trifluoromethyl)pyridin-3-yl}oxy)ethyl]-1,2-dihydrospiro[indole-3,4′-piperidin]-2-one], for which the AC50 on APOL1 G2 is 303 nM. The EC50 in experiment [1] (setting [2]) was determined as 33.5 nM.
For the compound `CC(O)c1ncc(OCCN2CCC3(CC2)C(=O)Nc2ccc(Cl)cc23)cn1` (single isomer, unassigned) [Compound 285, 5-chloro-1′-[2-({2-[(1S) or (1R)-1-hydroxyethyl]pyrimidin-5-yl}oxy)ethyl]-1,2-dihydrospiro[indole-3,4′-piperidin]-2-one], the AC50 at APOL1 G2 came out at 714 nM. For the same compound, the half-maximal effective concentration (EC50) in experiment [1] (setting [2]) was 200 nM.
In the case of `CC(O)c1ncc(OCCN2CCC3(CC2)C(=O)Nc2ccc(Cl)cc23)cc1C(F)(F)F` (single isomer, unassigned) [Compound 291, 5-chloro-1′-[2-({6-[(1R) or (1S)-1-hydroxyethyl]-5-(trifluoromethyl)pyridin-3-yl}oxy)ethyl]-1,2-dihydrospiro[indole-3,4′-piperidin]-2-one], on APOL1 G2, the AC50 was determined as 1190 nM. Further, the half-maximal effective concentration (EC50) in experiment [1] (setting [2]) stood at 26.4 nM.
The corresponding values for `CS(=O)(=O)c1ccc(OCCN2CCC3(CC2)C(=O)Nc2ccc(Cl)cc23)cc1C(F)CF` (single isomer, unassigned) [Compound 218, 5-chloro-1′-(2-{3-[(1S or 1R)-1,2-difluoroethyl]-4-methanesulfonylphenoxy}ethyl)-1,2-dihydrospiro[indole-3,4′-piperidin]-2-one] are 690 nM and 25.6 nM.
Taken in the same sequence, the figures for `O=C1Nc2ccc(Cl)cc2C12CCN(CCOc1ccc(S(=O)(=O)[C@H]3C[C@H](O)C3)cc1)CC2` [Compound 215, 5-chloro-1′-[2-(4-{[(trans)-3-hydroxycyclobutyl]sulfonyl}phenoxy)ethyl]-1,2-dihydrospiro[indole-3,4′-piperidin]-2-one] were 1130 nM and 79.8 nM.
For the compound `O=C1Nc2ccc(Cl)cc2C12CCN(CCOc1ccc(S(=O)(=O)C3(CO)CC3)cc1)CC2` [Compound 225, 5-chloro-1′-[2-(4-{[1-(hydroxymethyl)cyclopropyl]sulfonyl}phenoxy)ethyl]-1,2-dihydrospiro[indole-3,4′-piperidin]-2-one], at APOL1 G2, the concentration at half-maximal activity (AC50) is 847 nM. Further, in experiment [1] (setting [2]), the concentration giving a half-maximal response (EC50) worked out at 32.6 nM.
The corresponding values for `CS(=O)(=O)N1CC2(CN(C(=O)c3ccc(OCCN4CCC5(CC4)C(=O)Nc4ccc(Cl)cc45)cc3F)C2)C1` [Compound 273, 5-chloro-1′-[2-(3-fluoro-4-{6-methanesulfonyl-2,6-diazaspiro[3.3]heptane-2-carbonyl}phenoxy)ethyl]-1,2-dihydrospiro[indole-3,4′-piperidin]-2-one] are 2100 nM and 88.5 nM.
`CS(=O)(=O)C1(c2ncc(OCCN3CCC4(CC3)C(=O)Nc3ccc(Cl)cc34)cn2)COC1` [Compound 276, 5-chloro-1′-(2-{[2-(3-methanesulfonyloxetan-3-yl)pyrimidin-5-yl]oxy}ethyl)-1,2-dihydrospiro[indole-3,4′-piperidin]-2-one]: on APOL1 G2, the AC50 worked out at 1750 nM. In addition, the concentration giving a half-maximal response (EC50) in experiment [1] (setting [2]) was 101 nM.
With `CC(=O)N(C)CCS(=O)(=O)c1ccc(OCCN2CCC3(CC2)C(=O)Nc2ccc(Cl)cc23)cc1` [Compound 193, N-{2-[4-(2-{5-chloro-2-oxo-1,2-dihydrosiro[indole-3,4′-piperidin]-1′-yl}ethoxy)benzenesulfonyl]ethyl}-N-methylacetamide], the half-maximal activity concentration (AC50) on APOL1 G2 turned out to be 1270 nM. Further, the EC50 in experiment [1] (setting [2]) was 155 nM.
For the compound `CC(C)(O)c1ncc(OCCN2CCC3(CC2)C(=O)Nc2ccc(Cl)cc23)cn1` [Compound 305, 5-chloro-1′-(2-{[2-(2-hydroxypropan-2-yl)pyrimidin-5-yl]oxy}ethyl)-1,2-dihydrospiro[indole-3,4′-piperidin]-2-one], the AC50 on APOL1 G2 was 649 nM. In addition, the 50% effective concentration (EC50) in experiment [1] (setting [2]) was found to be 85.4 nM.
For the compound `O=C(c1ccc(OCCN2CCC3(CC2)C(=O)Nc2ccc(Cl)cc23)cc1F)N1CCS(=O)(=O)CC1` [Compound 232, 4-[4-(2-{5-chloro-2-oxo-1,2-dihydrospiro[indole-3,4′-piperidin]-1′-yl}ethoxy)-2-fluorobenzoyl]-1λ^6-thiomorpholine-1,1-dione], the AC50 at APOL1 G2 stood at 1010 nM. Further, in experiment [1] (setting [2]), the concentration for a half-maximal effect (EC50) amounted to 39.2 nM.
Taken in the same sequence, the figures for `C[C@]1(O)C[C@@H](N2C(=O)CCc3cc(OCCN4CCC5(CC4)C(=O)Nc4ccc(Cl)cc45)cnc32)C1` [Compound 275, 5-chloro-1′-[2-({7-oxo-8-[(cis)-3-hydroxy-3-methylcyclobutyl]-5,6,7,8-tetrahydro-1,8-naphthyridin-3-yl}oxy)ethyl]-1,2-dihydrospiro[indole-3,4′-piperidin]-2-one] were 640 nM and 27 nM.
For the compound `CN(C)C(=O)C1(c2ccc(OCCN3CCC4(CC3)C(=O)Nc3ccc(C#N)cc34)cc2)COC1` [Compound 254, 3-[4-(2-{5-cyano-2-oxo-1,2-dihydrospiro[indole-3,4′-piperidin]-1′-yl}ethoxy)phenyl]-N,N-dimethyloxetane-3-carboxamide], the AC50 at APOL1 G2 is 898 nM. Besides, the half-maximal effective concentration (EC50) in experiment [1] (setting [2]) worked out at 175 nM.
The corresponding values for `C[C@@H](COc1ccc2c(cnn2C)c1)N1CCC2(CC1)C(=O)Nc1ccc(Cl)cc12` (single isomer, unassigned) [Compound 211] are 1290 nM and 138 nM.
The corresponding values for `Cn1c(=O)[nH]c2cc(OCCN3CCC4(CC3)C(=O)Nc3ccc(Cl)cc34)cnc21` [Compound 247, 5-chloro-1′-[2-({3-methyl-2-oxo-1H,2H,3H-imidazo[4,5-b]pyridin-6-yl}oxy)ethyl]-1,2-dihydrospiro[indole-3,4′-piperidin]-2-one] are 806 nM and 92 nM.
The corresponding values for `NC(=O)c1ccc(OCCN2CCC3(CC2)C(=O)Nc2ccc(Cl)cc23)cc1C(F)F` [Compound 249, 4-(2-{5-chloro-2-oxo-1,2-dihydrospiro[indole-3,4′-piperidin]-1′-yl}ethoxy)-2-(difluoromethyl)benzamide] are 433 nM and 26.8 nM.
`O=C1Nc2ccc(Cl)cc2C12CCN(CCOc1cnc(N3CC(O)C3)nc1)CC2` [Compound 301, 5-chloro-1′-(2-{[2-(3-hydroxyazetidin-1-yl)pyrimidin-5-yl]oxy}ethyl)-1,2-dihydrospiro[indole-3,4′-piperidin]-2-one]: at APOL1 G2, the concentration at half-maximal activity (AC50) was 586 nM. In experiment [1] (setting [2]), the EC50 worked out at 86 nM.
The corresponding values for `Cc1n[nH]cc1-c1ccc(OCCN2CCC3(CC2)C(=O)Nc2ccc(Cl)cc23)cc1` [Compound 244, 5-chloro-1′-{2-[4-(5-methyl-1H-pyrazol-4-yl)phenoxy]ethyl}-1,2-dihydrospiro[indole-3,4′-piperidin]-2-one] are 1060 nM and 70.4 nM.
Take `CNC(=O)c1ccc(OCCN2CCC3(CC2)C(=O)Nc2ccc(Cl)cc23)cc1F` [Compound 229, 4-(2-{5-chloro-2-oxo-1,2-dihydrospiro[indole-3,4′-piperidin]-1′-yl}ethoxy)-2-fluoro-N-methylbenzamide]: the AC50 on APOL1 G2 is 792 nM. Moreover, the EC50 in experiment [1] (setting [2]) turned out to be 128 nM.
As for `O=C1Nc2ccc(Cl)cc2C12CCN(CCOc1cnc3c(N4CC(O)C4)nccc3c1)CC2` [Compound 314, 5-chloro-1′-(2-{[8-(3-hydroxyazetidin-1-yl)-1,7-naphthyridin-3-yl]oxy}ethyl)-1,2-dihydrospiro[indole-3,4′-piperidin]-2-one], the AC50 on APOL1 G2 was determined as 968 nM. Besides, the EC50 in experiment [1] (setting [2]) came out at 24.3 nM.
In the case of `O=C(c1c(F)cc(OCCN2CCC3(CC2)C(=O)Nc2ccc(Cl)cc23)cc1F)N1CCS(=O)(=O)CC1` [Compound 259, 4-[4-(2-{5-chloro-2-oxo-1,2-dihydrospiro[indole-3,4′-piperidin]-1′-yl}ethoxy)-2,6-difluorobenzoyl]-1λ^6-thiomorpholine-1,1-dione], at APOL1 G2, the half-maximal activity concentration (AC50) stood at 651 nM. For the same compound, in experiment [1] (setting [2]), the EC50 is 37.5 nM.
`CC(COc1ccc2c(c1)CCC(=O)N2C)N1CCC2(CC1)C(=O)Nc1ccc(Cl)cc12` (single isomer, unassigned) [Compound 200]: at APOL1 G2, the AC50 was 1200 nM. Further, the concentration for a half-maximal effect (EC50) in experiment [1] (HEK293 overexpressing APOL1 G2) was found to be 87.2 nM.
Take `CS(=O)(=O)c1ccc(OCCN2CCC3(CC2)C(=O)Nc2ccc(Cl)cc23)cc1C(F)CF` (single isomer, unassigned) [Compound 219, 5-chloro-1′-(2-{3-[(1R or 1S)-1,2-difluoroethyl]-4-methanesulfonylphenoxy}ethyl)-1,2-dihydrospiro[indole-3,4′-piperidin]-2-one]: the AC50 at APOL1 G2 worked out at 835 nM. Also, in experiment [1] (HEK293 overexpressing APOL1 G2), the concentration giving a half-maximal response (EC50) came to 26.3 nM.
